Measurements as given in patent US20080146555A1, “Uses of Kinase Inhibitors and Compositions Thereof” (GPC Biotech, Inc, priority 2004, published 2008).

What was measured:
[1] = molecular target: T1, Casein Kinase 1 (yeast) (Schizosaccharomyces pombe, UniProt P40233); test: CK1-Yeast kinase assay (A37 assay); type: biochemical, S. pombe
T1 construct: purchased Upstate 14-112
Method: • 1. Assay Dilution Buffer I (ADBI, Catalog #20-108): 20 mM MOPS, pH 7.2, 25 mM β-glycerol • phosphate, 5 mM EGTA, 1 mM sodium orthovanadate, 1 mM dithiothreitol. • 2. Casein Kinase 1, active: Dilute to 10-50 ng/μl. Use 10 μl (100-500 ng) per assay point. • 3. Casein Kinase 1 Substrate Peptide (Catalog #12-423): Prepare a 1 mM sock in ADBI. Use 10 μl per assay for a final concentration of 250 μM per assay point. • 4. [γ-^32P]ATP: Stock 1 mCi/100 μl (3000 Ci/mmol, obtained from Perkin Elmer, Cat. # BLU002A). Make 10 μl aliquots (100 μCi/vial). Before starting the assay, dilute an aliquot with 90 μl of 500 μM cold ATP and 75 mM magnesium chloride in ADBI.
• 1. Add 10 μl of ADBI to a microcentrifuge tube. • 2. Add 10 μl of Casein Kinase 1, active (100-500 ng). • 3. Add 10 μl (250 μM) Casein Kinase 1 Substrate Peptide. • 4. Add 10 μl of diluted [γ-^32P]ATP mixture. • 5. Incubate for 10 minutes at in a shaking incubator at 30° C. • 6. Transfer 25 μl onto the center of a 2 cm×2 cm P81 paper. • 7. Wash the assay squares three times with 0.75% phosphoric acid. • 8. Wash the assay squares once with acetone. • 9. Transfer the assay squares to a scintillation vial and add 5 ml scintillation cocktail. • 10. Read in scintillation counter. Compare cpm of enzyme samples to cpm of control samples that contain no enzyme (background control).

[2] = test system: Rb phosphorylation at Serine-780; test: Rb phosphorylation; type: cell-based
[3] = MTD/toxicity study in rats; type: in vivo; conditions: 50-80 mg/kg i/v, QDx5/2/5 schedule
Method: A similar scheme can also be employed in experimental rats and other animals. For example, to determine MTD in rats, 50-80 mg/kg of A37 was dosed i/v in a QDx5/2/5 schedule.

[4] = test system: A2780 xenograft; test: A2780 xenograft tumor model; parameters: species or system mice; conditions: mouse, in vivo
Method: Drugs. Compounds of the invention were synthesized and prepared for i.v. administration in a biocompatible vehicle. CPT-11 (Camptosar®, Pharmacia) was obtained as the pharmaceutical drug and was prepared in 5% dextrose-water (D5W). All preparations were made fresh weekly and injection volumes were adjusted to body weight (0.2 ml/20 g mouse).
Mice/Husbandry. Female nu/nu mice were obtained from Charles River, housed in static microisolators, and provided ad libitum with water and an irradiated standard rodent diet (Purina Pico-Lab Rodent Diet 20).
Standard Protocol. […] Animals were initially monitored twice weekly for tumor growth and then daily as the implants approached the desired size of approximately 100 mm^3. When the tumors grew to between 62-221 mg in calculated tumor weight, the animals were pair-matched into appropriate experimental treatment groups (8-10 animals/group) and treatment with test compounds was initiated. […] Tumor weights were calculated and body weights were taken twice weekly and animals were observed frequently for adverse drug effects. […]
Tumors were measured by determining the length and width of the tumor with a digital caliper. […]
Log cell kill (LCK) is a calculation that determines the percentage of tumor cells that are killed after the initiation of treatment and can be used as a quantitative measure of efficacy: […]

T1 sequence (P40233 1-298 limits assumed): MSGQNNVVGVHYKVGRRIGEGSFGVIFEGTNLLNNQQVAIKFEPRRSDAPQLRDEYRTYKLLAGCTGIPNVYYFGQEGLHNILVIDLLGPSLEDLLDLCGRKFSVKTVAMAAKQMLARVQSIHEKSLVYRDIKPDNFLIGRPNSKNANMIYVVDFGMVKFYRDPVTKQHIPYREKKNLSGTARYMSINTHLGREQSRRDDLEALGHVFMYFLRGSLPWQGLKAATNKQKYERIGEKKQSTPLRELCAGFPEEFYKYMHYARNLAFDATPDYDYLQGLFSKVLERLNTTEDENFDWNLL

For `CC(C)N1CCN(C(=O)COc2ccc(-c3n[nH]c4c3C(=O)c3c(NC(=O)NN5CCOCC5)cccc3-4)cc2)CC1` [Compound A37], the IC50 ([1]; CK1 IC50 (A37), kinase panel, 10 μM ATP) was under 3 nM, the IC50 ([1]; CSNK1A1 (CK1) Inhibition (IC50), A37, S. pombe CK1 (*)) was under 5 nM and the “Rb phosphorylation at Serine-780” value [2] was “inhibits Rb phosphorylation at Serine-780”. For the same compound, the cardiotoxicity [3] was “did not induce cardiotoxicity” and the “efficacy in A2780 xenograft tumor model” value [4] was “high efficacy”.
